The results in this text go back to a melting point compilation (Tetko et al.).

By melting point is commonly meant the temperature of the solid-liquid transition.

Molecules are shown by their SMILES.

Compound `O=C(O)C1CCCN1C(=O)Nc1ccc(F)cc1` (configuration not stated) showed a melting point of 163 to 165 °C.

The compound `Cc1ccc(-c2nn(-c3ccc(F)cc3)cc2C(=O)O)cc1` gave a melting point of 212 to 214 °C.

`NC1CC(=O)N(c2ccc(Oc3ccccc3)cc2)C1` (configuration not stated) came in with a melting point of 112 to 114 °C.

Consider `O=C(O)CNc1ccccc1[N+](=O)[O-]`, for which the melting point was in the range of 80 to 82 °C.

`Cc1nn(-c2ccccc2)c(C)c1NC(=O)CCl` registered a melting point of 149 to 151 °C.

Compound `Brc1cccc(-n2cnnn2)c1` returned a melting point of 90 to 92 °C.

Take `CCOC(=O)c1cccnc1S(N)(=O)=O`: the melting point is 92 to 94 °C.

With `CCN1CCNC1=O`, the melting point was in the range of 75 to 77 °C.

As to `CN1CC(=O)N(c2ccc([N+](=O)[O-])cc2)C1=O`, the melting point lay within 161 to 163 °C.

Regarding `O=C(O)/C(=C\c1ccccc1)c1cccs1`, the melting point was in the range of 169 to 171 °C.

In the case of `Cc1cccc2c(CC(=O)O)c[nH]c12`, the melting point fell in the range of 188 to 190 °C.

`NCc1ccc(N2CCOCC2)c(F)c1` gave a melting point of 36 to 38 °C.

In turn, `O=C(O)CSc1nnc(-c2ccccc2)o1` registered a melting point of 169 to 171 °C.

For `COC(=O)CCCc1nnc(N)s1`, the melting point lay within 149 to 151 °C.

Consider `CON(C)S(=O)(=O)c1ccc(C(=O)O)cc1`, for which the melting point was 210 to 212 °C.

For `Nc1ccc(F)c(N2CCS(=O)(=O)CC2)c1`, the melting point is 181 to 183 °C.

On to `O=C1C(Br)CCN1c1c(F)cccc1F` (configuration not stated), for which the melting point was in the range of 79 to 81 °C.

`COc1cc(C(=O)O)ccc1OC(C)C`: the melting point fell in the range of 140 to 142 °C.

`CC(N)c1ccc(NC(N)=O)cc1` (configuration not stated) returned a melting point of 132 to 134 °C.

For the compound `O=C(c1ccc2c(c1)CCCN2)N1CCOCC1`, the melting point fell in the range of 142 to 144 °C.

For the compound `Cc1csc(N2CCC(=O)CC2)n1`, the melting point lay within 59 to 61 °C.

`Nc1cc(Cl)cc(Br)c1O` registered a melting point of 83 to 85 °C.

`Clc1ncnc2c1CCCC2` returned a melting point of 79 to 81 °C.

Consider `COC(=O)c1nc2n(n1)-c1ccccc1S(=O)(=O)N2`, for which the melting point was 262 to 264 °C.

The compound `O=C(NS(=O)(=O)c1cccs1)c1ccccc1` yielded a melting point of 92 to 94 °C.

`CC(C(=O)O)N1CCSCC1` (configuration not stated): the melting point was 199 to 201 °C.

As for `COc1cc(OC)c2ncc(C(=O)O)c(O)c2c1`, the melting point was 299 to 301 °C.

In turn, `O=C(O)COc1ccc(S(=O)(=O)Cl)cc1Cl` displayed a melting point of 123 to 125 °C.

Compound `O=C(Nc1sccc1C(=O)O)c1ccco1` had a melting point of 196 to 198 °C.

With `COc1cc(C(=O)O)cc(OC)c1OCc1ccccc1`, the melting point lay within 155 to 159 °C.

`CC1(C)CC(=O)c2cc(Br)cc(Cl)c2O1` came in with a melting point of 48 to 50 °C.

On to `CC(=O)N1CCN(CC(N)=NO)CC1`, for which the melting point was 199 to 201 °C.

`CS(=O)(=O)c1cccc(C(=O)c2ccc(F)cc2)c1`: the melting point was 66 to 68 °C.

Take `COc1ccc(-c2nnc(SCC(=O)O)o2)cc1`: the melting point fell in the range of 140 to 143 °C.

In the case of `N#Cc1ccc(N2CCOC2=O)cc1`, the melting point fell in the range of 149 to 151 °C.

Turning to `O=C(O)c1ccc(-c2nc3ccccc3s2)o1`, the melting point was 180 to 188 °C.

As to `Cc1ccc(NC(N)=O)cc1C`, the melting point was 170 to 172 °C.

Turning to `OC1CCN(c2nncc3ccccc23)CC1`, the melting point was in the range of 135 to 137 °C.

As to `O=C(Nc1ccc(F)cc1)NC1CCNCC1`, the melting point lay within 183 to 185 °C.

The compound `O=Cc1c(Cl)nc(Cl)n1-c1ccccc1` had a melting point of 133 to 135 °C.

With `CS(=O)(=O)c1ccc(NC(N)=O)cc1`, the melting point lay in the range of 224 to 226 °C.

For the compound `Cn1ccnc1Sc1ccccc1N`, the melting point was in the range of 121 to 123 °C.

Compound `O=C(O)CNS(=O)(=O)c1ccc(N2CCCC2=O)cc1` had a melting point of 130 to 132 °C.

The compound `O=Cc1csc(-c2ncccn2)n1` gave a melting point of 197 to 199 °C.

Turning to `Cn1cnnc1Sc1ccc(C=O)cc1[N+](=O)[O-]`, the melting point was 171 to 173 °C.

In turn, `COC(=O)c1cc2ccccc2nc1Cl` displayed a melting point of 82 to 84 °C.

Compound `Cc1cc(Br)cc(Cl)c1OCC(=O)O` had a melting point of 197 to 199 °C.

Turning to `[N-]=[N+]=Nc1ccc(Cl)c(Cl)c1`, the melting point fell in the range of 32 to 34 °C.

On to `COC1(C(=O)O)CCN(C(=O)OC(C)(C)C)CC1`, for which the melting point lay within 96 to 98 °C.

As to `O=C(O)c1ccc(S(=O)(=O)Nc2nccs2)cc1`, the melting point lay in the range of 289 to 291 °C.

Regarding `O=C(CCl)N1CCN(S(=O)(=O)c2ccc3c(c2)CCC3)CC1`, the melting point fell in the range of 120 to 122 °C.

Regarding `CC(C)(C)OC(=O)N1CCN(CC#N)CC1`, the melting point was in the range of 79 to 81 °C.

Take `O=C(O)c1ccc(S(=O)(=O)Cl)c(Br)c1`: the melting point fell in the range of 206 to 208 °C.

Compound `O=C(O)c1coc(Br)c1` showed a melting point of 133 to 135 °C.

`COc1ccc(C(=O)N2CCCCCC2)cc1N` showed a melting point of 133 to 135 °C.

`Cn1cc(C#N)cc1C(=O)C(Cl)(Cl)Cl`: the melting point lay within 146 to 148 °C.

The compound `CC(=O)c1c(C)cc(C)c(CCl)c1C` yielded a melting point of 74 to 76 °C.

For `Nc1cccc(-c2ccc3c(c2)CCO3)c1`, the melting point fell in the range of 64 to 66 °C.

Compound `NC(=S)c1ccco1` yielded a melting point of 132 to 134 °C.

For `COc1ccc(OCc2nc(C=O)cs2)cc1`, the melting point was in the range of 95 to 97 °C.

`O=C(O)c1conc1-c1ccc(Cl)cc1` had a melting point of 182 to 184 °C.

On to `Cc1ccc(-c2nn(-c3ccccc3)cc2C(=O)O)cc1C`, for which the melting point was in the range of 215 to 217 °C.

Consider `Cc1[nH]cnc1CO`, for which the melting point lay within 233 to 235 °C.

In turn, `Cn1ccnc1-c1nnc(N)s1` registered a melting point of 263 to 265 °C.

The compound `CN1Cc2ccccc2NC1=O` gave a melting point of 200 to 203 °C.

Compound `O=c1cc(CCl)nc2scnn12` showed a melting point of 183 to 187 °C.

`CCCN(CC)C(=O)c1ccc(C(=O)O)cc1` displayed a melting point of 121 to 123 °C.

Compound `CC1CC(C(F)(F)F)c2c(n(C)[nH]c2=O)N1` (configuration not stated) came in with a melting point of 202 to 204 °C.

As for `Nc1cc(F)c(F)cc1Br`, the melting point fell in the range of 47 to 49 °C.

Regarding `O=C(O)C1CC1c1cccc(Br)c1` (configuration not stated), the melting point is 115 to 117 °C.

In turn, `Cc1cc(F)cc(C(=O)O)c1[N+](=O)[O-]` displayed a melting point of 161 to 163 °C.

With `N#Cc1cccc(I)c1N`, the melting point fell in the range of 115 to 117 °C.

In the case of `O=[N+]([O-])c1ccc(Br)c(S(=O)(=O)Cl)c1`, the melting point lay in the range of 86 to 88 °C.

In the case of `CS(=O)(=O)Nc1cc(F)ccc1N`, the melting point is 121 to 123 °C.

As for `Nc1ccc2oc(=O)[nH]c2c1`, the melting point was in the range of 204 to 206 °C.

`CCN(c1ccccc1)c1ccc(C(=O)O)cc1` gave a melting point of 178 to 180 °C.

`O=C(O)c1cc2ccccc2c(=O)[nH]1` had a melting point of 318 to 320 °C.

`CS(=O)(=O)c1ccc(Cl)c(NC(=O)CCl)c1` registered a melting point of 148 to 149 °C.

Compound `Cc1nc2nnnn2c(C)c1CCC(=O)O` registered a melting point of 187 to 189 °C.

With `CC(=O)c1ccc(C(=O)O)c(F)c1`, the melting point was 159 to 161 °C.

Turning to `Nc1ccn(Cc2ccsc2)n1`, the melting point fell in the range of 43 to 45 °C.

As to `Cc1cnc(C#N)nc1`, the melting point is 67 to 69 °C.

In the case of `CC(CC(=O)O)NCCO` (configuration not stated), the melting point was in the range of 180 to 182 °C.

On to `CS(=O)(=O)c1ccc(F)c(C(=O)O)c1`, for which the melting point was in the range of 190 to 192 °C.

In the case of `O=C(O)C(=O)NNc1ccc(Cl)cc1Cl`, the melting point lay within 169 to 171 °C.

As for `O=C(O)c1ccc(CS(=O)(=O)c2ccccc2)o1`, the melting point was 180 to 182 °C.

`CC(O)(C(=O)O)C1CC1` (configuration not stated) showed a melting point of 39 to 41 °C.
